Test results from ChEMBL document CHEMBL1130883, “Modeling, synthesis and biological activity of novel antifungal agents (1)” (Bioorg Med Chem Lett, 1998).
In brackets after ≈: the same amount, converted by molar mass.

Key:
[1] = tested on: Candida albicans; assay: Compound was tested in vitro for antifungal activity against Candida albicans (CY3003); assay type: functional
[2] = tested on: Cryptococcus neoformans; assay: Compound was tested in vitro for antifungal activity against Cryptococcus neoformans (CY1057)
[3] = tested on: Aspergillus fumigatus; assay: Compound was tested in vitro for antifungal activity against Aspergillus fumigatus (CF1004); assay type: functional
[4] = target: Lanosterol 14-alpha demethylase (Candida albicans) (UniProt P10613); assay: In vitro inhibition of cytochrome P450 lanosterol C14 demethylase in Candida albicans CY1005
Chain of Lanosterol 14-alpha demethylase (Candida albicans) (P10613 whole entry, looked up): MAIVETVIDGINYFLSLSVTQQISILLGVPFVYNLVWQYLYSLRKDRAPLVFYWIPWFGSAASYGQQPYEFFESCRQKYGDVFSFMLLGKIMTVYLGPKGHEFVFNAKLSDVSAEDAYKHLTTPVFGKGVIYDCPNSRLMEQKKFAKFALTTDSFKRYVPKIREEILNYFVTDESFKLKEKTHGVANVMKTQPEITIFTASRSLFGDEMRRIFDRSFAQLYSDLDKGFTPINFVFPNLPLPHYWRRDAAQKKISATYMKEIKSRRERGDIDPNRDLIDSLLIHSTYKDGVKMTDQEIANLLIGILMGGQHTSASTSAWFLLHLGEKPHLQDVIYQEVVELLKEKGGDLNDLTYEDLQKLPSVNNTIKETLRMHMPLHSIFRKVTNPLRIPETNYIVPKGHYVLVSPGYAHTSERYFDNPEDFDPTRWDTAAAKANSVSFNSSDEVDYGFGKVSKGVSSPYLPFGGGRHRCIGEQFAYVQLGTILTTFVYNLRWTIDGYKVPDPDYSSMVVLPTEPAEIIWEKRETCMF

[5] = tested on: Candida albicans; assay: Compound was tested in vitro for antifungal activity against Cryptococcus neoformans (CY1057) in experiment 2; assay type: functional
[6] = tested on: Aspergillus fumigatus; assay: Compound was tested in vitro for antifungal activity against Aspergillus fumigatus (CF1004) in experiment 2; assay type: functional

Row | SMILES | IC80 [1] | IC80 [2] | IC80 [3] | IC50 [4] | IC80 [5] | IC80 [6]
1 | CCc1ccc(CC[C@@H]2CCC(C)(C)/C(=N/OC)[C@H]2Cn2cncn2)cc1 | 0.024 µg/mL (≈ 0.0651 µM) | 0.48 µg/mL (≈ 1.3 µM) | 0.064 µg/mL (≈ 0.174 µM) | – | – | –
2 | CO/N=C1\[C@@H](Cn2cncn2)[C@H](COc2ccc(OC(F)(F)F)cc2)CCC1(C)C | 0.12 µg/mL (≈ 0.281 µM) | 7.6 µg/mL (≈ 17.8 µM) | 0.4 µg/mL (≈ 0.938 µM) | – | – | –
3 | CC1(C)CC[C@@H](COc2ccc(OC(F)(F)F)cc2)[C@H](Cn2cncn2)/C1=N\O | 0.35 µg/mL (≈ 0.849 µM) | > 200 µg/mL | 0.17 µg/mL (≈ 0.412 µM) | – | – | –
4 | COC1[C@@H](Cn2cncn2)[C@H](COc2ccc(OC(F)(F)F)cc2)CCC1(C)C (stereo partly specified) | 0.18 µg/mL (≈ 0.435 µM) | 0.51 µg/mL (≈ 1.23 µM) | 56 µg/mL (≈ 135 µM) | – | – | –
5 | CC1(C)CC[C@@H](COc2ccc(OC(F)(F)F)cc2)[C@H](Cn2cncn2)C1OCCO (stereo partly specified) | 0.39 µg/mL (≈ 0.879 µM) | 5.2 µg/mL (≈ 11.7 µM) | 110 µg/mL (≈ 248 µM) | – | – | –
6 | CC(=O)c1ccc(CC[C@@H]2CCC(C)(C)/C(=N/O)[C@H]2Cn2cncn2)cc1 | > 200 µg/mL | > 200 µg/mL | 60 µg/mL (≈ 163 µM) | – | – | –
7 | CCc1ccc(CC[C@@H]2CCC(C)(C)C(OCCO)[C@H]2Cn2cncn2)cc1 (stereo partly specified) | 0.00086 µg/mL (≈ 0.00223 µM) | 0.36 µg/mL (≈ 0.934 µM) | > 200 µg/mL | – | – | –
8 | CCc1ccc(CC[C@@H]2CCC(C)(C)/C(=N/O)[C@H]2Cn2cncn2)cc1 | 0.023 µg/mL (≈ 0.0649 µM) | 130 µg/mL (≈ 367 µM) | 0.0011 µg/mL (≈ 0.0031 µM) | – | – | –
9 | CC(O)c1ccc(CC[C@@H]2CCC(C)(C)/C(=N/O)[C@H]2Cn2cncn2)cc1 (stereo partly specified) | > 200 µg/mL | > 200 µg/mL | 21 µg/mL (≈ 56.7 µM) | – | – | –
10 | CCc1ccc(CC[C@@H]2CCC(C)(C)[C@H](OC)[C@H]2Cn2cncn2)cc1 | 0.0042 µg/mL (≈ 0.0118 µM) | 0.74 µg/mL (≈ 2.08 µM) | > 200 µg/mL | 0.01 µg/mL (≈ 0.0281 µM) | – | –
11 | OC(Cn1cncn1)(Cn1cncn1)c1ccc(F)cc1F [FLUCONAZOLE] | 1.3 µg/mL (≈ 4.24 µM) | 6.2 µg/mL (≈ 20.2 µM) | 150 µg/mL (≈ 490 µM) | – | 2.6 µg/mL (≈ 8.49 µM) | > 200 µg/mL
